The text below walks through data of the SangsterLogP compilation.

Test in data set [1]: not given
This is another data set of the same source.

Data set [2] can be described thus: method code SF-RC, from DOI: 10.1016/0006-2952(81)90006-x, PMID: 6456004.
The nature of data set [3]: method code SF-RC, from DOI: 10.1016/0048-3575(88)90037-5.
Data set [4] is described as follows: method code SF, from DOI: 10.1021/js9601804, PMID: 9344176. The settings on record: pH 8.0.
Test in data set [5]: not given
This is another data set of the same source.

Data set [6] is described as follows: method code SF, from DOI: 10.1248/cpb.42.1525, PMID: 7923475.
Data set [7] can be described thus: method code SF, from DOI: 10.1002/jps.2600641111, PMID: 1195110. The settings on record: pH 7.4.
Data set [8] in a line: method code SF-AS, from DOI: 10.1016/0006-2952(75)90156-2, PMID: 235934. The settings on record: pH 7.4.
Data set [9] is described as follows: method code SF-AS, from DOI: 10.1021/jm00304a030, PMID: 5793164. The settings on record: pH 7.4.
A short description of data set [10]: method code SF-AS, from Korenman, Y.; Sotnikova, G. (1975). Extraction of vanillins from aqueous solutions. Zh. Prikl. Khim., 48(1)188-191.
A short description of data set [11]: method code SF-HPLC, from PMID: 1880579. The settings on record: pH 7.4.
Data set [12] is described as follows: method code SF-AS, from DOI: 10.1002/jps.2600600712, PMID: 4398902.
A short description of data set [13]: method code SF-AS, from DOI: 10.1016/0022-1902(68)80266-0. The settings on record: pH 4.0.
Test in data set [14]: not given
The source holds these as a separate data set.

Test in data set [15]: not given
The source holds these as a separate data set.

Data set [16] in a line: method code SF-HPLC, from DOI: 10.1007/bf03246517.
The nature of data set [17]: method code SF-AS, from DOI: 10.1016/0014-2999(86)90191-3, PMID: 3780854. The settings on record: pH 7.4.
Test in data set [18]: not given
The source holds these as a separate data set.

Test in data set [19]: not given
This is another data set of the same source.

Data set [20] is described as follows: method code SF, from DOI: 10.1007/s00253-012-4358-8, PMID: 23081771. The settings on record: pH 7.0.
Data set [21] is described as follows: method code SF-AS, from DOI: 10.1021/jm00307a001, PMID: 5637185.
Test in data set [22]: not given
The source holds these as a separate data set.

Test in data set [23]: not given
This is another data set of the same source.

Data set [24] is described as follows: method code SF-POL, from DOI: 10.1111/j.1365-2044.1990.tb14524.x, PMID: 2316851. The settings on record: pH 7.1.
A short description of data set [25]: method code SF-RC, from DOI: 10.1002/qsar.19880070404. The settings on record: pH 0.0.
A short description of data set [26]: method code SF-HPLC, from DOI: 10.1021/jm010289a, PMID: 11754587. The settings on record: pH 7.0.
Data set [27] in a line: method code SF-RC, from DOI: 10.1002/jps.2600840617, PMID: 7562417.
Data set [28] is described as follows: method code SF-AS, from DOI: 10.1002/chin.198419165, PMID: 6653771. The settings on record: pH 2.5.
Data set [29] can be described thus: method code SF, from PMID: 15170. The settings on record: pH 5.0.
The nature of data set [30]: method code SF-RC, from DOI: 10.1016/0006-2952(75)90159-8, PMID: 1168477.
Data set [31] in a line: method code SF-AS, from PMID: 2748530.
A short description of data set [32]: method code SF-RC, from DOI: 10.1016/s0969-8051(98)00005-5, PMID: 9720665. The settings on record: pH 7.0.
Test in data set [33]: not given
The source holds these as a separate data set.

The conditions of data set [34]: pH 1.0.
Test in data set [35]: not given
This is another data set of the same source.

Data set [36] in a line: method code SF-AS, from DOI: 10.1002/qsar.19870060104.
A short description of data set [37]: method code SF, from DOI: 10.1021/jm00111a036, PMID: 2066990.
Test in data set [38]: not given
This is another data set of the same source.

A short description of data set [39]: method code SF, from DOI: 10.1246/bcsj.60.4357.
Test in data set [40]: not given
The source holds these as a separate data set.

Data set [41] in a line: method code SF-AS, from DOI: 10.1111/j.2042-7158.1989.tb06484.x, PMID: 2570835.
Test in data set [42]: not given
The source holds these as a separate data set.

The nature of data set [43]: method code SF-RC,FL, from DOI: 10.1016/0006-2952(81)90006-x, PMID: 6456004.
Data set [44] in a line: method code SF-AS, from DOI: 10.1080/09553007214550551, PMID: 4537457.
The nature of data set [45]: method code SF-HPLC, from DOI: 10.1002/jps.2600810507, PMID: 1403673.
Data set [46] is described as follows: method code SF-EPR, from DOI: 10.1016/0003-9861(82)90097-2, PMID: 6284047. The settings on record: pH 7.4.
Test in data set [47]: not given
This is another data set of the same source.

SMILES strings stand for the structures.

For `CCCCCCCCO`, the logP came to 3.

Compound `COc1nc(C(Cl)(Cl)Cl)c(Cl)c(OC)c1Cl` yielded a logP in [1] of 5.48. For `NCCc1ccccc1`, the logP in [2] was 1.16. `CC(C)Nc1nc(Cl)nc(NCCO)n1` came in with a logP in data set [3] of 0.78.

As a reminder, the logD is lipophilicity at a set pH, counting ionised and neutral species. Read a high logD as higher lipophilicity. In data set [4], `O=C1COc2ccccc2N1` displayed a logD of 1.31. In [5], `CCCn1cnc2c(N)ncnc21` had a logP of 0.74. `COC(=O)c1ccccc1` showed a logP in [6] of 2.09. Consider `CC(=O)NCCn1c([N+](=O)[O-])cnc1C`, for which the pH-dependent lipophilicity (logD) in data set [7] is -0.47. The compound `CCOc1ccc([N+](=O)[O-])cc1` gave a logD in [8] of 2.53. The compound `Brc1ccc2[nH]ccc2c1` displayed a logD in data set [9] of 3. For the compound `COc1ccc(C=O)cc1O`, the logP in data set [10] stood at 0.97. In the case of `O=[N+]([O-])c1nccn1C1OC(CI)C(O)C1O` (stereo not drawn), the logD in data set [11] was 0.7. For `CCN1CCCCCC1=O`, the logP in [12] turned out to be 0.65.

The compound `O=C(CC(=O)C(F)(F)F)c1cccs1` showed a logD in data set [13] of 1.46.

Turning to `O=C(NCCO[N+](=O)[O-])c1cccnc1`, in data set [14], the logP was -1.02.

In turn, `O=[N+]([O-])c1nccn1C1OCC(I)CC1F` (stereo not drawn) came in with a logP in data set [15] of 0.8. For the compound `OCCc1ccc(O)cc1`, the logP in [16] was 0.69. In turn, `COc1noc2c1CN(C)CC2` showed a logD in data set [17] of 0.4.

In data set [18], `CC(C)(C)c1cn2nc(S(N)(=O)=O)sc2n1` registered a logP of 2.15. With `O=S(=O)(CS(=O)(=O)C(F)(F)F)c1ccc(Cl)c(Cl)c1`, in [19], the logP worked out at 1.7. Compound `C=Cc1ccc(O)cc1` came in with a log distribution coefficient (logD) in data set [20] of 2.36. Take `C#CC1(O)CCCCC1`: the logP in data set [21] was 1.73. Take `Cc1ccccc1C`: the logP in data set [22] was found to be 3.29. `CCOc1ccccc1O` came in with a logP in data set [23] of 1.91. The compound `NC(=S)NN=C1C=CC(=NNC(N)N)C=C1` came in with a logD in data set [24] of -1.4.

`O=C(O)Cc1ccccc1I`: the logD in [25] was determined as 2.33. `CN1C(=O)C(=O)c2ccccc21` gave a pH-dependent lipophilicity (logD) in [26] of 0.63. In turn, `Nc1ccn(C[C@@H](CO)OCP(=O)(O)O)c(=O)n1` had a logP in [27] of -3.17.

On to `N#CCNc1ccccc1C(=O)O`, for which the pH-dependent lipophilicity (logD) in data set [28] worked out at 1.75.

Turning to `CCC1(CC)C(=O)NC(=O)NC1=O`, the logD in [29] was 0.71. `C=CCN(C(C)=O)C(C)C` returned a logP in [30] of 1.14. With `O=[N+]([O-])c1nccn1CC(O)COCC(F)(F)F` (stereo not drawn), the logP in data set [31] was found to be 0.46.

With `OC1OC2COC(CI)OC2C(O)C1O` (stereo not drawn), the logD in data set [32] came out at 1.1.

Regarding `O=[N+]([O-])c1nccn1[C@H]1O[C@H](CF)[C@@H](O)[C@@H]1O`, in [33], the logP is 0.04. In [34], `O=C(O)Cc1c(Cl)ccc(Cl)c1Cl` yielded a log distribution coefficient (logD) of 3.2. In turn, `O=C1NC(=O)c2ccccc21` registered a logP in [35] of 1.04. Compound `O=c1ccoc2cc(O)ccc12` displayed a logP in data set [36] of 1.44.

As to `O=[N+]([O-])c1nccn1CC(O)C/C=C/I` (stereo not drawn), in data set [37], the logP stood at 0.4. In turn, `CC(Oc1ccc(Cl)cc1Cl)C(=O)O` (stereo not drawn) displayed a logP in data set [38] of 3.43. Regarding `CCc1cc([N+](=O)[O-])cc([N+](=O)[O-])c1O`, in data set [39], the logP was 2.67. `O=C(Cn1ccnc1[N+](=O)[O-])NCC(F)(F)C(F)(F)F` displayed a logP in data set [40] of 0.76. Compound `O=c1[nH][nH]c(=O)c2ccccc12` had a logP in [41] of 0.11. Compound `C1COCCOCCOCCO1` had a logP in [42] of -0.04.

For `NCCc1ccc(O)cc1`, the logP in [43] was -0.24. On to `CC(=O)c1ccc(Cl)cc1`, for which the logP in [44] turned out to be 2.35.

In data set [45], `O=C(O)c1ccc(C(=O)O)cc1` gave a logP of 1.68. `CCC1(C)OCC(C)(C)N1O` (stereo not drawn) returned a pH-dependent lipophilicity (logD) in [46] of 0.57. Turning to `NC(N)=Nc1nc(CSCCC(N)=NS(N)(=O)=O)cs1`, the logP in [47] is -0.56.
